Results as given in PubChem BioAssay (NCI).
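Values below derive from 48-hour exposures of cells grown in 96-well plates, with endpoints linearly interpolated between the two concentrations bracketing the appropriate inhibition level. The concentration for 50% growth inhibition is given as GI50. TGI denotes the concentration required for complete inhibition of growth.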

How the values were obtained:
Assay in all cases: growth of human tumour cells (NCI), 48 h
[1] = tested on: UACC-257 melanoma
[2] = tested on: IGROV1 ovarian
[3] = tested on: SF-268 CNS
[4] = tested on: SK-MEL-2 melanoma
[5] = tested on: COLO 205 colon
[6] = tested on: NCI/ADR-RES ovarian
[7] = tested on: OVCAR-5 ovarian
[8] = tested on: SF-539 CNS
[9] = tested on: MDA-MB-435
[10] = tested on: HCT-116 colon

## Cc1cc(-c2nc3cc(F)ccc3s2)ccc1NC(=O)[C@@H](N)CCCCN
[1]
  TGI: 13.3 µM
[2]
  TGI: 18.3 µM
[3]
  TGI: 22.6 µM
[4]
  TGI: 8.76 µM
[5]
  TGI: 9.35 µM
[6]
  TGI: 37.2 µM
[7]
  TGI: 17 µM
[8]
  TGI: 9.73 µM
[9]
  TGI: 3.69 µM
[10]
  TGI: 7.67 µM

## Cc1ccc(S(=O)(=O)n2c3ccc(Br)cc3c3nc4ccccc4nc32)cc1
[1]
  TGI: > 100 µM
[2]
  TGI: 57.8 µM
[3]
  TGI: > 100 µM
[4]
  TGI: > 100 µM
[5]
  TGI: > 100 µM
[6]
  TGI: > 100 µM
[7]
  TGI: > 100 µM
[9]
  TGI: > 100 µM
[10]
  TGI: > 100 µM

## CCOc1ccc(N/C(=C(/C(Cl)=C(/Cl)N(CC)CC)[N+](=O)[O-])n2nnc3ccccc32)cc1
[1]
  TGI: > 100 µM
[3]
  TGI: 36.2 µM
[4]
  TGI: 68.8 µM
[5]
  TGI: 37.2 µM
[6]
  TGI: 53.9 µM
[7]
  TGI: > 100 µM
[8]
  TGI: 47.4 µM
[9]
  TGI: 33.9 µM
[10]
  TGI: 30.4 µM

## N#CC1(C#N)NC(c2cccs2)C(C#N)(C#N)NC1c1cccs1 (stereo not drawn)
[1]
  TGI: > 100 µM
[2]
  TGI: > 100 µM
[3]
  TGI: > 100 µM
[4]
  TGI: 50.5 µM
[5]
  TGI: > 100 µM
[6]
  TGI: > 100 µM
[7]
  TGI: 92.6 µM
[8]
  TGI: 47.6 µM
[9]
  TGI: > 100 µM
[10]
  TGI: > 100 µM

## O=C1NC(Nc2ccccc2)=NC(C(F)(F)F)(C(F)(F)F)N1
[1]
  TGI: > 100 µM
[2]
  TGI: > 100 µM
[3]
  TGI: > 100 µM
[4]
  TGI: 75.4 µM
[5]
  TGI: > 100 µM
[6]
  TGI: > 100 µM
[7]
  TGI: > 100 µM
[8]
  TGI: > 100 µM
[9]
  TGI: > 100 µM
[10]
  TGI: > 100 µM

## COc1ccc2c3c1OC1C(=O)C=CC4(CC2)N(C)CCC314 (stereo not drawn)
[1]
  TGI: > 100 µM
[2]
  TGI: > 100 µM
[3]
  TGI: 91 µM
[4]
  TGI: 54.3 µM
[5]
  TGI: 22.7 µM
[6]
  TGI: > 100 µM
[7]
  TGI: 92.4 µM
[9]
  TGI: 61.2 µM
[10]
  TGI: 29.1 µM

## CCN(CC)N1C(=O)[N+](CC)(CC)N=C1[O-]
[2]
  TGI: > 100 µM
[3]
  TGI: > 100 µM
[4]
  TGI: > 100 µM
[5]
  TGI: > 100 µM
[6]
  TGI: > 100 µM
[7]
  TGI: > 100 µM
[8]
  TGI: > 100 µM
[9]
  TGI: > 100 µM
[10]
  TGI: > 100 µM

## Nc1ccc(S(=O)(=O)c2ccc(NCN3C(=O)NC(=O)C(=O)C3=O)cc2)cc1
[1]
  TGI: > 100 µM
[2]
  TGI: > 100 µM
[3]
  TGI: > 100 µM
[4]
  TGI: > 100 µM
[6]
  TGI: > 100 µM
[7]
  TGI: > 100 µM
[9]
  TGI: > 100 µM
[10]
  TGI: > 100 µM

## COc1cc2ccc(=O)oc2cc1O
[1]
  TGI: 270 µM
[2]
  TGI: 423 µM
[3]
  TGI: > 585 µM
[4]
  TGI: 577 µM
[5]
  TGI: > 625 µM
[6]
  TGI: 277 µM
[7]
  TGI: 514 µM
[8]
  TGI: 201 µM
[10]
  TGI: > 625 µM

## CN(C)C(=O)OC1C(=O)N(C)c2ccc(Cl)cc2C2(c3ccccc3)N1C2(Cl)Cl (stereo not drawn)
[1]
  TGI: > 100 µM
[2]
  TGI: > 100 µM
[3]
  TGI: > 100 µM
[4]
  TGI: > 100 µM
[5]
  TGI: > 100 µM
[7]
  TGI: > 100 µM
[10]
  TGI: > 100 µM

## C[N+](C)(C)c1ccc(C(N)C(=O)O)cc1 (stereo not drawn)
[1]
  TGI: > 100 µM
[2]
  TGI: > 100 µM
[3]
  TGI: > 100 µM
[4]
  TGI: > 100 µM
[5]
  TGI: > 100 µM
[6]
  TGI: > 100 µM
[7]
  TGI: > 100 µM
[9]
  TGI: > 100 µM
[10]
  TGI: > 100 µM

## COc1ccc(N2C(=O)CC(=O)N(C(=O)COc3ccc(OCC(=O)N4C(=O)CC(=O)N(c5ccc(OC)cc5)C4=S)cc3)C2=S)cc1
[1]
  TGI: > 100 µM
[2]
  TGI: > 100 µM
[3]
  TGI: > 100 µM
[4]
  TGI: > 100 µM
[5]
  TGI: 39.8 µM
[6]
  TGI: > 100 µM
[7]
  TGI: > 100 µM
[9]
  TGI: > 100 µM
[10]
  TGI: 39.5 µM

## C[n+]1cccc2c(=O)c3ccccc3oc21
[2]
  TGI: > 100 µM
[3]
  TGI: > 100 µM
[4]
  TGI: > 100 µM
[5]
  TGI: > 100 µM
[6]
  TGI: > 100 µM
[7]
  TGI: > 100 µM
[8]
  TGI: > 100 µM
[9]
  TGI: > 100 µM
[10]
  TGI: > 100 µM

## Cc1cc(C)nc(SC2=C(Nc3ccc(C)c(Cl)c3)C(=O)N(Cc3ccccc3)C2=O)n1
[3]
  GI50: > 160 µM
  TGI: > 160 µM
[4]
  GI50: > 160 µM
  TGI: > 160 µM
[5]
  GI50: > 160 µM
  TGI: > 160 µM
[6]
  GI50: > 160 µM
  TGI: > 160 µM
[7]
  GI50: > 160 µM
  TGI: > 160 µM
[8]
  GI50: > 160 µM
  TGI: > 160 µM
[9]
  GI50: > 160 µM
  TGI: > 160 µM
[10]
  GI50: > 160 µM
  TGI: > 160 µM

## COc1c(O)c(C=O)c2c(O)c(-c3c(C)cc4c(C(C)C)c(OC)c(O)c(C=O)c4c3O)c(C)cc2c1C(C)C
[1]
  TGI: 29 µM
[2]
  TGI: 18.5 µM
[3]
  TGI: 23.5 µM
[4]
  TGI: 11.1 µM
[5]
  TGI: 4 µM
[7]
  TGI: 20.7 µM
[8]
  TGI: 12.8 µM
[10]
  TGI: 5.39 µM

## O=c1cc(N2CCCC2)[nH]c(=O)n1Cc1ccccc1
[1]
  TGI: > 100 µM
[2]
  TGI: > 100 µM
[4]
  TGI: > 100 µM
[5]
  TGI: > 100 µM
[6]
  TGI: > 100 µM
[7]
  TGI: > 100 µM
[8]
  TGI: > 100 µM
[9]
  TGI: > 100 µM
[10]
  TGI: > 100 µM

## C/C=C/c1cc(=O)c([C@@H]2OC(=O)c3cc(OC)cc(OC)c32)co1
[1]
  TGI: > 100 µM
[2]
  TGI: > 100 µM
[3]
  TGI: > 100 µM
[4]
  TGI: > 100 µM
[5]
  TGI: 55.5 µM
[8]
  TGI: > 100 µM
[10]
  TGI: > 100 µM

## NC(=O)c1cccc([N+](=O)[O-])c1
[1]
  TGI: > 100 µM
[2]
  TGI: > 100 µM
[3]
  TGI: > 100 µM
[4]
  TGI: > 100 µM
[5]
  TGI: > 100 µM
[8]
  TGI: > 100 µM

## CC(=O)Oc1cc2c(cc1OC(C)=O)OCC(c1ccc(C)cc1)C2 (stereo not drawn)
[1]
  TGI: 40.3 µM
[2]
  TGI: 42.9 µM
[3]
  TGI: 34.2 µM
[4]
  TGI: 34.1 µM
[5]
  TGI: 41.8 µM
[6]
  TGI: 58.3 µM
[7]
  TGI: 79 µM
[8]
  TGI: 32 µM
[10]
  TGI: 41.5 µM

## O=C1C(Cl)=C(OCCCl)C(=O)c2c(O)ccc(O)c21
[1]
  TGI: 8.01 µM
[2]
  TGI: 19.7 µM
[3]
  TGI: 17.1 µM
[5]
  TGI: 3.26 µM
[6]
  TGI: 69.1 µM
[7]
  TGI: 31.6 µM
[8]
  TGI: 31.8 µM
[10]
  TGI: 2.97 µM

## COC(=O)C1CCC(=S)N1C(=O)c1ccccc1 (stereo not drawn)
[1]
  TGI: > 100 µM
[2]
  TGI: > 100 µM
[3]
  TGI: > 100 µM
[4]
  TGI: > 100 µM
[5]
  TGI: > 100 µM
[6]
  TGI: > 100 µM
[7]
  TGI: > 100 µM
[9]
  TGI: > 100 µM
[10]
  TGI: > 100 µM

## CC(C)=NN/C(=N\S(=O)(=O)c1ccc(Oc2cccc(Cl)c2C#N)cc1)Nc1ccc(Cl)cc1
[1]
  TGI: > 100 µM
[2]
  TGI: > 100 µM
[3]
  TGI: > 100 µM
[4]
  TGI: > 100 µM
[5]
  TGI: > 100 µM
[6]
  TGI: > 100 µM
[7]
  TGI: > 100 µM
[9]
  TGI: > 100 µM
[10]
  TGI: > 100 µM
